Results published in patent publication US12534452B2, “N-(1H-imidazol-2-yl)benzamide compound and pharmaceutical composition comprising the same as active ingredient” (KAINOS MEDICINE, INC., priority 2019, dated 2026).

target: IRAK4 (Homo sapiens (Human), UniProt Q9NWZ3); assay: In vitro IRAK4 phosphorylation activity assay; assay type: biochemical; settings: [γ-33P]-ATP, myelin basic protein substrate, 40 minutes at room temperature; categories
Method in brief: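 Radiometric filter-binding assay, no compound–kinase preincubation; 8 mM MOPS pH 7.0, 0.2 mM EDTA, 10 mM Mg acetate, 0.33 mg/mL myelin basic protein substrate, [γ-33P]-ATP. Reaction 40 min at room temperature, stopped with phosphoric acid, scintillation counting; IC50 reported in categories.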

IRAK4, sequence (Q9NWZ3 whole entry): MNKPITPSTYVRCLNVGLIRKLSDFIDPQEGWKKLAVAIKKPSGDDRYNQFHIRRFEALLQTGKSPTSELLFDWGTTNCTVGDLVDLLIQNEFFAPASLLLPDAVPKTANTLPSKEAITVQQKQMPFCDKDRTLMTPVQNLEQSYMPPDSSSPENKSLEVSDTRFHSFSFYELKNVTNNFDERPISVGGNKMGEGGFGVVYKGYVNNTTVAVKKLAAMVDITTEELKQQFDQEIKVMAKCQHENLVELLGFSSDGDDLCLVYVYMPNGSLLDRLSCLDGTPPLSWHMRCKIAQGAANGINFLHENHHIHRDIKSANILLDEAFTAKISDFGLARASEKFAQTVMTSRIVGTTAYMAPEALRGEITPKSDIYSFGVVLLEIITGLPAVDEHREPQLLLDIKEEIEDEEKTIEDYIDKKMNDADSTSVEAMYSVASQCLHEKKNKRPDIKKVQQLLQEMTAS

| Compound | IC50 |
| --- | --- |
| O=C(Nc1nc(CCCCNc2ccccc2)cn1-c1ccccc1)c1cccc(-c2cn[nH]c2)c1 [Example 112, N-(1-phenyl-4-(4-(phenylamino)butyl)-1H-imidazol-2-yl)-3-(1H-pyrazol-4-yl)benzamide] | > 0.1 µM |
| Cn1cc(-c2cccc(C(=O)Nc3nc(CCCC(=O)NC4CC4)cn3-c3ccc(F)cc3)c2)cn1 [Example 300, N-(4-(4-(cyclopropylamino)-4-oxobutyl)-1-(4-fluorophenyl)-1H-imidazol-2-yl)-3-(1-methyl-1H-pyrazol-4-yl)benzamide] | < 0.05 µM |
| O=C(Nc1nc(CCCCCCN2CCCCC2)cn1-c1ccc(F)cc1F)c1cccc(-c2cn[nH]c2)c1 [Example 302, N-(1-(2,4-difluorophenyl)-4-(6-(piperidin-1-yl)hexyl)-1H-imidazol-2-yl)-3-(1H-pyrazol-4-yl)benzamide] | > 0.1 µM |
| Cn1cc(-c2cccc(C(=O)Nc3nc(CCCC(=O)N[C@H]4CC[C@H](N)CC4)cn3-c3ccccc3)c2)cn1 [Example 215, N-(4-(4-(((1R,4R)-4-aminocyclohexyl)amino)-4-oxobutyl)-1-phenyl-1H-imidazol-2-yl)-3-(1-methyl-1H-pyrazol-4-yl)benzamide] | 0.05 to 0.1 µM |
| Cn1cc(-c2cccc(C(=O)Nc3nc(CCCC(=O)N4CCN(c5ccccc5)CC4)cn3-c3ccccc3)c2)cn1 [Example 188, 3-(1-methyl-1H-pyrazol-4-yl)-N-(4-(4-oxo-4-(4-phenylpiperazin-1-yl)butyl)-1-phenyl-1H-imidazol-2-yl)benzamide] | < 0.05 µM |
| O=C(Nc1nc(CCCCCC(=O)N2CCCCC2)cn1-c1ccccc1)c1cccc(-c2ccc3[nH]nnc3c2)c1 [Example 242, 3-(1H-benzo[d][1,2,3]triazol-5-yl)-N-(4-(6-oxo-6-(piperidin-1-yl)hexyl)-1-phenyl-1H-imidazol-2-yl)benzamide] | < 0.05 µM |
| O=C(Nc1nc(CCC(=O)N2CCOCC2)cn1-c1ccccc1)c1cccc(-c2cn[nH]c2)c1 [Example 11, N-(4-(3-morpholino-3-oxopropyl)-1-phenyl-1H-imidazol-2-yl)-3-(1H-pyrazol-4-yl)benzamide] | < 0.05 µM |
| O=C(CCc1cn(-c2ccccc2)c(NC(=O)c2cccc(-c3cn[nH]c3)c2)n1)NN1CCCCC1 [Example 8, N-(4-(3-oxo-3-(piperidin-1-ylamino)propyl)-1-phenyl-1H-imidazol-2-yl)-3-(1H-pyrazol-4-yl)benzamide] | 0.05 to 0.1 µM |
| CCOC(C)n1cc(-c2cccc(C(=O)Nc3nc(CCCC(=O)NC4CC4)cn3-c3ccccc3)c2)cn1 (stereo not drawn) [Example 72, N-(4-(4-(cyclopropylamino)-4-oxobutyl)-1-phenyl-1H-imidazol-2-yl)-3-(1-(1-ethoxyethyl)-1H-pyrazol-4-yl)benzamide] | > 0.1 µM |
| O=C(CCCc1cn(-c2ccccc2)c(NC(=O)c2cccc(-c3cccc4[nH]ncc34)c2)n1)NC1CC1 [Example 249, N-(4-(4-(cyclopropylamino)-4-oxobutyl)-1-phenyl-1H-imidazol-2-yl)-3-(1H-indazol-4-yl)benzamide] | < 0.05 µM |
| CNC(=O)CCCc1cn(-c2ccc(F)cc2F)c(NC(=O)c2cccc(-c3cn[nH]c3)c2)n1 [Example 298, N-(1-(2,4-difluorophenyl)-4-(4-(methylamino)-4-oxobutyl)-1H-imidazol-2-yl)-3-(1H-pyrazol-4-yl)benzamide] | 0.05 to 0.1 µM |
| O=C(CCCc1cn(-c2ccccc2)c(NC(=O)c2cccc(-c3ccc4cn[nH]c4c3)c2)n1)NC1CC1 [Example 250, N-(4-(4-(cyclopropylamino)-4-oxobutyl)-1-phenyl-1H-imidazol-2-yl)-3-(1H-indazol-6-yl)benzamide] | < 0.05 µM |
| O=C(CCCCCc1cn(-c2ccccc2)c(NC(=O)c2cccc(-c3ccc4ncsc4c3)c2)n1)NC1CC1 [Example 286, 3-(benzo[d]thiazol-6-yl)-N-(4-(6-(cyclopropylamino)-6-oxohexyl)-1-phenyl-1H-imidazol-2-yl)benzamide] | < 0.05 µM |
| O=C(Nc1nc(CCN2CCCCC2)cn1-c1ccccc1)c1cccc(-c2cn[nH]c2)c1 [Example 104, N-(1-phenyl-4-(2-(piperidin-1-yl)ethyl)-1H-imidazol-2-yl)-3-(1H-pyrazol-4-yl)benzamide] | > 0.1 µM |
| Cn1cc(-c2cccc(C(=O)Nc3nc(CCCC(=O)N4CCCC[C@@H]4CCO)cn3-c3ccccc3)c2)cn1 [Example 174, (R)—N-(4-(4-(2-(2-hydroxyethyl)piperidin-1-yl)-4-oxobutyl)-1-phenyl-1H-imidazol-2-yl)-3-(1-methyl-1H-pyrazol-4-yl)benzamide] | < 0.05 µM |
| Cn1cc(-c2cccc(C(=O)Nc3nc(CCCCNC(=O)C4CC4)cn3-c3ccccc3)c2)cn1 [Example 227, N-(4-(4-(cyclopropanecarboxamido)butyl)-1-phenyl-1H-imidazol-2-yl)-3-(1-methyl-1H-pyrazol-4-yl)benzamide] | < 0.05 µM |
| C[C@@H]1CC[C@@H](C)N1C(=O)CCc1cn(-c2ccccc2)c(NC(=O)c2cccc(-c3cn[nH]c3)c2)n1 [Example 29, N-(4-(3-((2R,5R)-2,5-dimethylpyrrolidin-1-yl)-3-oxopropyl)-1-phenyl-1H-imidazol-2-yl)-3-(1H-pyrazol-4-yl)benzamide] | < 0.05 µM |

| Compound | IC50 |
| --- | --- |
| COC[C@H]1CCCN1C(=O)CCc1cn(-c2ccccc2)c(NC(=O)c2cccc(-c3cn[nH]c3)c2)n1 [Example 20, (R)—N-(4-(3-(2-(methoxymethyl)pyrrolidin-1-yl)-3-oxopropyl)-1-phenyl-1H-imidazol-2-yl)-3-(1H-pyrazol-4-yl)benzamide] | > 0.1 µM |
| CC(C)OC(=O)CCCc1cn(-c2ccccc2)c(NC(=O)c2cccc(-c3cn[nH]c3)c2)n1 [Example 70, isopropyl 4-(2-(3-(1H-pyrazol-4-yl)benzamido)-1-phenyl-1H-imidazol-4-yl)butanoate] | < 0.05 µM |
| Cn1cc(-c2cccc(C(=O)Nc3nc(CCCC(=O)NCCN4CCCCC4)cn3-c3ccccc3)c2)cn1 [Example 159, 3-(1-methyl-1H-pyrazol-4-yl)-N-(4-(4-oxo-4-((2-(piperidin-1-yl)ethyl)amino)butyl)-1-phenyl-1H-imidazol-2-yl)benzamide] | < 0.05 µM |
| O=C(Nc1nc(CCCCCCN2CCCCC2)cn1-c1ccccc1)c1cccc(-c2ccncc2)c1 [Example 268, N-(1-phenyl-4-(6-(piperidin-1-yl)hexyl)-1H-imidazol-2-yl)-3-(pyridin-4-yl)benzamide] | 0.05 to 0.1 µM |
| CC1CCCCN1C(=O)CCCc1cn(-c2ccccc2)c(NC(=O)c2cccc(-c3cnn(C)c3)c2)n1 (stereo not drawn) [Example 166, 3-(1-methyl-1H-pyrazol-4-yl)-N-(4-(4-(2-methylpiperidin-1-yl)-4-oxobutyl)-1-phenyl-1H-imidazol-2-yl)benzamide] | < 0.05 µM |
| O=C(CCCc1cn(-c2ccccc2)c(NC(=O)c2cccc(-c3ccncc3)c2)n1)NC1CC1 [Example 267, N-(4-(4-(cyclopropylamino)-4-oxobutyl)-1-phenyl-1H-imidazol-2-yl)-3-(pyridin-4-yl)benzamide] | < 0.05 µM |
| Cn1cc(-c2cccc(C(=O)Nc3nc(CCCC(=O)N4CCC[C@@H](N)C4)cn3-c3ccccc3)c2)cn1 [Example 210, (R)—N-(4-(4-(3-aminopiperidin-1-yl)-4-oxobutyl)-1-phenyl-1H-imidazol-2-yl)-3-(1-methyl-1H-pyrazol-4-yl)benzamide] | < 0.05 µM |
| O=C(Nc1nc(CCCCN2CCOCC2)cn1-c1ccccc1)c1cccc(-c2cn[nH]c2)c1 [Example 114, N-(4-(4-morpholinobutyl)-1-phenyl-1H-imidazol-2-yl)-3-(1H-pyrazol-4-yl)benzamide] | < 0.05 µM |
| O=C(O)Cc1cn(-c2ccccc2)c(NC(=O)c2cccc(-c3cn[nH]c3)c2)n1 [Example 43, 2-(2-(3-(1H-pyrazol-4-yl)benzamido)-1-phenyl-1H-imidazol-4-yl)acetic acid] | > 0.1 µM |
| C[C@@H]1CCC[C@H](C)N1C(=O)CCCCCc1cn(-c2ccccc2)c(NC(=O)c2cccc(-c3cn[nH]c3)c2)n1 [Example 97, N-(4-(6-((2R,6S)-2,6-dimethylpiperidin-1-yl)-6-oxohexyl)-1-phenyl-1H-imidazol-2-yl)-3-(1H-pyrazol-4-yl)benzamide] | < 0.05 µM |
| O=C(Nc1nc(CCCCN2CCSCC2)cn1-c1ccccc1)c1cccc(-c2cn[nH]c2)c1 [Example 115, N-(1-phenyl-4-(4-thiomorpholinobutyl)-1H-imidazol-2-yl)-3-(1H-pyrazol-4-yl)benzamide] | < 0.05 µM |
| Cn1cc(-c2cccc(C(=O)Nc3nc(CCCCCC(=O)N4CCCCC4)cn3-c3ccccc3)c2)cn1 [Example 200, 3-(1-methyl-1H-pyrazol-4-yl)-N-(4-(6-oxo-6-(piperidin-1-yl)hexyl)-1-phenyl-1H-imidazol-2-yl)benzamide] | < 0.05 µM |
| Cn1cc(-c2cccc(C(=O)Nc3nc(CCCC(=O)NC4CCNCC4)cn3-c3ccccc3)c2)cn1 [Example 214, 3-(1-methyl-1H-pyrazol-4-yl)-N-(4-(4-oxo-4-(piperidin-4-ylamino)butyl)-1-phenyl-1H-imidazol-2-yl)benzamide] | > 0.1 µM |
| Cn1cc(-c2cccc(C(=O)Nc3nc(CCCCN4CCCCC4)cn3-c3ccccc3)c2)cn1 [Example 219, 3-(1-methyl-1H-pyrazol-4-yl)-N-(1-phenyl-4-(4-(piperidin-1-yl)butyl)-1H-imidazol-2-yl)benzamide] | < 0.05 µM |
| COC[C@H]1CCCN1NC(=O)Cc1cn(-c2ccccc2)c(NC(=O)c2cccc(-c3cn[nH]c3)c2)n1 [Example 45, (R)—N-(4-(2-((2-(methoxymethyl)pyrrolidin-1-yl)amino)-2-oxoethyl)-1-phenyl-1H-imidazol-2-yl)-3-(1H-pyrazol-4-yl)benzamide] | 0.05 to 0.1 µM |
| Nc1ccc(-c2cccc(C(=O)Nc3nc(CCCC(=O)N4CCCCC4)cn3-c3ccccc3)c2)cn1 [Example 273, 3-(6-aminopyridin-3-yl)-N-(4-(4-oxo-4-(piperidin-1-yl)butyl)-1-phenyl-1H-imidazol-2-yl)benzamide] | < 0.05 µM |
